Assay results from US10188689B2, “Method and composition for treating breast cancer” (STELLENBOSCH UNIVERSITY, priority 2014, dated 2019).

Tested on: Phospho-ser15-p53
Test: Western blot of tumours from treated mice: phospho-ser15-p53
Assay type: in vivo, C57BL6 mice
Conditions: tumours of Dox treated mice, seven days
Procedure: Following the weighing and grouping of mice, treatment with D. viscosa extract commenced. Tumour size was measured every two days by taking measurements in two perpendicular dimensions using digital calipers. The D. viscosa extract was administered through raspberry flavoured jelly blocks. Mice were conditioned to the taste of the jelly four days before treatment began. Human dosage (5.24 mg/kg/day) and the Km factor were used for dose translation based on body surface area to calculate animal dosage to be administered (Reagan-Shaw et al., 2007). On the day of treatment, mice were put in separate cages and given a 1 cm×1 cm block of jelly injected with 146 μL extract per jelly block (0.065 mg/g average bodyweight) at dusk every day, for a period of seven days. The day after the last treatment, mice were sacrificed by decapitation, where after tumours were harvested and frozen at −80° C. until needed.
Protein extraction from cells took place after the 24 hour treatment period. The medium was aspirated and the flasks were placed on ice. […] Cell lysates were then centrifuged at room temperature for 10 minutes at 8000 rpm, where after the protein content of each lysate was determined using the Bradford method (Bradford, 1976). […] After extraction protein content was determined with the Bradford method (Bradford, 1976) and stored at −80° C. until analysis, […]

COc1cccc2c1C(=O)c1c(O)c3c(c(O)c1C2=O)C[C@@](O)(C(=O)CO)C[C@@H]3O[C@H]1C[C@H](N)[C@H](O)[C@H](C)O1 [Dox, doxorubicin]
level of p53 in tumours (ratio of phospho-ser15-p53 to total p53): 5.3±1.016 fold increase relative to cont
